Results from patent US9884042B2, “Formulations of cyclopropanecarboxylic acid {2-[(1S)-1-(3-ethoxy-4-methoxy-phenyl)-2-methanesulfonyl-ethyl]-3-oxo-2,3-dihydro-1H-isoindol-4-yl}-amide” (Celgene Corporation, priority 2011, dated 2018).
pIC50: −log10 of the molar value.

Key:
[1] = test system: PDE4 enzyme from U937 human monocytic cells; experiment: Enzyme assay using purified PDE4 enzyme; type: biochemical
Text: Cyclopropane carboxylic acid {2-[(1S)-1-(3-ethoxy-4-methoxy-phenyl)-2-methanesulfonyl-ethyl]-3-oxo-2,3-dihydro-1H-isoindol-4-yl}-amide (“Compound A”) is a novel compound with anti-inflammatory activity in clinical development for the treatment of a variety of chronic inflammatory conditions. Pharmacologically, Compound A blocks the degradation of cyclic adenosine monophosphate (cAMP) via inhibition of the phosphodiesterase type IV (PDE4) enzyme, resulting in an increase in cAMP in PDE4-expressing cells including monocytes, T cells, and neutrophils. Enzyme assay data using purified PDE4 enzyme from U937 human monocytic cells indicate that Compound A has a PDE4 IC50 of 100 nM (50 ng/mL). Compound A and methods for its synthesis are described, e.g., in U.S. Patent Publication No. 2010/0129363, the disclosure of which is hereby incorporated by reference in its entirety. Compound A may also be prepared according to the process described in U.S. Patent Publication No. 2010/0168475, the disclosure of which is hereby incorporated in its entirety.

[2] = Solubility of the drug substance; type: physicochemical; conditions: qualitative statement
Text: Due to its diversified pharmacological properties, Compound A is useful in treating, preventing, and/or managing various diseases or disorders.

pIC50 [1]: 7.00 | PDE4 IC50 ([1]; same value in mass units): 0.05 µg/mL | Solubility [2]: poorly soluble
SMILES: CCOc1cc([C@@H](CS(C)(=O)=O)N2Cc3cccc(NC(=O)C4CC4)c3C2=O)ccc1OC [Compound A, cyclopropanecarboxylic acid {2-[(1S)-1-(3-ethoxy-4-methoxy-phenyl)-2-methanesulfonyl-ethyl]-3-oxo-2,3-dihydro-1H-isoindol-4-yl}-amide]
